{
  "source": "ChEMBL document CHEMBL4619763",
  "about": "(J Nat Prod, 2020)",
  "key": {"Rattus norvegicus [1]": {"system": "Rattus norvegicus", "test": "Diuretic activity in normotensive Wistar rat assessed as increase in urine volume excretion at 0.1 to 1 mg/kg, po administered via gavage after 1 hr", "type": "functional, organism-based"}, "Rattus norvegicus [2]": {"system": "Rattus norvegicus", "test": "Diuretic activity in normotensive Wistar rat assessed as urine pH at 1 mg/kg, po administered via gavage after 8 hrs (reference value: 6.14 to 6.21)", "type": "functional"}, "Rattus norvegicus [3]": {"system": "Rattus norvegicus", "test": "Diuretic activity in normotensive Wistar rat assessed as urine pH at 0.01 mg/kg, ip after 8 hrs (reference value: 6.05 +/- 0.22)", "type": "functional"}, "Rattus norvegicus [4]": {"system": "Rattus norvegicus", "test": "Diuretic activity in normotensive Wistar rat assessed as urinary potassium excretion at 0.1 mg/kg, ip […] after 8 hrs (reference value: 22.33 +/- 2.81 mmol/L)", "type": "ADME, organism-based", "details": "in vivo"}, "Rattus norvegicus [5]": {"system": "Rattus norvegicus", "test": "Diuretic activity in normotensive Wistar rat assessed as urinary potassium excretion at 1 mg/kg, ip […] after 8 hrs (reference value: 22.33 +/- 2.81 mmol/L)", "type": "ADME, organism-based", "details": "in vivo"}, "Rattus norvegicus [6]": {"system": "Rattus norvegicus", "test": "Diuretic activity in normotensive Wistar rat assessed as urinary chloride excretion at 0.01 mg/kg, po administered via gavage after 8 hrs (reference value: 135.10 to 143.70 mmol/L)", "type": "functional"}, "Rattus norvegicus [7]": {"system": "Rattus norvegicus", "test": "Diuretic activity in normotensive Wistar rat assessed as urinary calcium excretion at 0.1 mg/kg, po administered via gavage after 8 hrs (reference value: 5.93 to 6.87 mg/dl)", "type": "functional"}, "Rattus norvegicus [8]": {"system": "Rattus norvegicus", "test": "Diuretic activity in normotensive Wistar rat assessed as urinary calcium excretion at 1 mg/kg, po administered via gavage after 8 hrs (reference value: 5.93 to 6.87 mg/dl)", "type": "functional"}, "Rattus norvegicus [9]": {"system": "Rattus norvegicus", "test": "Diuretic activity in normotensive Wistar rat assessed as urine pH at 0.1 mg/kg, po administered via gavage after 8 hrs in presence of furosemide (reference value: 6.14 to 6.21)", "type": "functional"}, "Rattus norvegicus [10]": {"system": "Rattus norvegicus", "test": "Diuretic activity in normotensive Wistar rat assessed as urine pH at 0.1 mg/kg, po administered via gavage after 8 hrs in presence of indomethacin (reference value: 6.14 to 6.21)", "type": "functional"}, "Rattus norvegicus [11]": {"system": "Rattus norvegicus", "test": "Diuretic activity in normotensive Wistar rat assessed as urine pH at 0.1 mg/kg, po administered via gavage after 8 hrs in presence of atropine (reference value: 6.14 to 6.21)", "type": "functional"}, "Rattus norvegicus [12]": {"system": "Rattus norvegicus", "test": "Diuretic activity in normotensive Wistar rat assessed as urine conductivity at 0.1 mg/kg, po administered via gavage after 8 hrs in presence of L-NAME (reference value: 19.54 +/- 0.98 mS/cm)", "type": "functional"}, "Rattus norvegicus [13]": {"system": "Rattus norvegicus", "test": "Diuretic activity in normotensive Wistar rat assessed as urinary sodium excretion at 0.1 mg/kg, po administered via gavage after 8 hrs in presence of furosemide (reference value: 61.82 to 80.81 mmol/L)", "type": "functional"}, "Rattus norvegicus [14]": {"system": "Rattus norvegicus", "test": "Diuretic activity in normotensive Wistar rat assessed as urinary potassium excretion at 0.1 mg/kg, po administered via gavage after 8 hrs in presence of hydrochlorothiazide (reference value: 22.39 to 24.21 mmol/L)", "type": "ADME, organism-based", "details": "in vivo"}, "Rattus norvegicus [15]": {"system": "Rattus norvegicus", "test": "Diuretic activity in normotensive Wistar rat assessed as urinary chloride excretion at 0.1 mg/kg, po administered via gavage after 8 hrs in presence of furosemide (reference value: 135.10 to 143.70 mmol/L)", "type": "functional"}, "Rattus norvegicus [16]": {"system": "Rattus norvegicus", "test": "Diuretic activity in normotensive Wistar rat assessed as urinary chloride excretion at 0.1 mg/kg, po administered via gavage after 8 hrs in presence of amiloride (reference value: 135.10 to 143.70 mmol/L)", "type": "functional"}, "Rattus norvegicus [17]": {"system": "Rattus norvegicus", "test": "Diuretic activity in normotensive Wistar rat assessed as urinary chloride excretion at 0.1 mg/kg, po administered via gavage after 8 hrs in presence of indomethacin (reference value: 135.10 to 143.70 mmol/L)", "type": "functional"}, "Rattus norvegicus [18]": {"system": "Rattus norvegicus", "test": "Diuretic activity in normotensive Wistar rat assessed as urinary chloride excretion at 0.1 mg/kg, po administered via gavage after 8 hrs in presence of L-NAME (reference value: 135.10 to 143.70 mmol/L)", "type": "functional"}, "Rattus norvegicus [19]": {"system": "Rattus norvegicus", "test": "Diuretic activity in normotensive Wistar rat assessed as urinary calcium excretion at 0.1 mg/kg, po administered via gavage after 8 hrs in presence of hydrochlorothiazide (reference value: 5.93 to 6.87 mg/dl)", "type": "functional"}, "Rattus norvegicus [20]": {"system": "Rattus norvegicus", "test": "Diuretic activity in normotensive Wistar rat assessed as urinary calcium excretion at 0.1 mg/kg, po administered via gavage after 8 hrs in presence of indomethacin (reference value: 5.93 to 6.87 mg/dl)", "type": "functional"}, "Rattus norvegicus [21]": {"system": "Rattus norvegicus", "test": "Diuretic activity in spontaneous hypertensive Wistar rat assessed as increase in urine volume at 0.1 mg/kg, po administered via gavage for 7 days", "type": "functional, organism-based"}, "Rattus norvegicus [22]": {"system": "Rattus norvegicus", "test": "Diuretic activity in normotensive Wistar rat assessed as increase in urinary chloride excretion at 0.1 mg/kg, po administered via gavage for 7 days", "type": "functional, organism-based"}, "[23]": {"test": "Toxicity in normotensive Wistar rat assessed as changes in plasma potassium level at 0.1 mg/kg, po administered for 7 days", "type": "organism-based", "details": "in vivo, 168 h"}, "[24]": {"test": "Toxicity in normotensive Wistar rat assessed as changes in plasma chloride level at 0.1 mg/kg, po administered for 7 days", "type": "organism-based", "details": "in vivo, 168 h"}, "[25]": {"test": "Toxicity in normotensive Wistar rat assessed as changes in plasma calcium level at 0.1 mg/kg, po administered for 7 days", "type": "organism-based", "details": "in vivo, 168 h"}, "[26]": {"test": "Toxicity in spontaneous hypertensive Wistar rat assessed as changes in plasma AST level at 0.1 mg/kg, po administered for 7 days", "type": "organism-based", "details": "in vivo, 168 h"}, "[27]": {"test": "Toxicity in spontaneous hypertensive Wistar rat assessed as changes in plasma ALT level at 0.1 mg/kg, po administered for 7 days", "type": "organism-based", "details": "in vivo, 168 h"}, "[28]": {"test": "Toxicity in normotensive Wistar rat assessed as changes in plasma uric acid level at 0.1 mg/kg, po administered for 7 days", "type": "organism-based", "details": "in vivo, 168 h"}, "[29]": {"test": "Toxicity in normotensive Wistar rat assessed as changes in plasma nitrite acid level at 0.1 mg/kg, po administered for 7 days", "type": "organism-based", "details": "in vivo, 168 h"}, "[30]": {"test": "Toxicity in normotensive Wistar rat assessed as changes in urea level in urine at 0.1 mg/kg, po administered for 7 days", "type": "organism-based", "details": "in vivo, 168 h"}, "Rattus norvegicus [31]": {"system": "Rattus norvegicus", "test": "In vivo antioxidant activity in Wistar rat model of hypertension-induced oxidative stress assessed as reduction in reactive oxygen species generation in renal tissue at 0.1 mg/kg, po administered via gavage for 7 days by DCFH-DA probe based fluorimetric assay", "type": "functional, organism-based"}, "Rattus norvegicus [32]": {"system": "Rattus norvegicus", "test": "In vivo antioxidant activity in Wistar rat model of hypertension-induced oxidative stress assessed as reduction in nitrite level in renal tissue at 0.1 mg/kg, po administered via gavage for 7 days by Griess reagent based assay", "type": "functional, organism-based"}, "Rattus norvegicus [33]": {"system": "Rattus norvegicus", "test": "Renal protective activity in spontaneous hypertensive Wistar rat assessed as reduction in hypertension-induced mesangial space disarrangement at 0.1 mg/kg, po administered via gavage for 7 days by hematoxylin and eosin staining based microscopic analysis", "type": "functional, organism-based"}, "[34]": {"test": "Anti-urolithic activity in synthetic urine assessed as reduction in CaOx crystal formation at 0.01 mg/mL in presence of sodium oxalate after 60 mins by Neubauer counting chamber method relative to control", "type": "functional", "design": "scale not given: the % may be the effect or the level left"}, "[35]": {"test": "Anti-urolithic activity in synthetic urine assessed as decrease in absorption at 0.1 mg/mL relative to control", "type": "functional", "design": "scale not given: the % may be the effect or the level left"}, "[36]": {"test": "Anti-urolithic activity in synthetic urine assessed as decrease in absorbance at 0.1 mg/mL after 60 mins relative to control", "type": "functional", "design": "scale not given: the % may be the effect or the level left"}},
  "note": "Activity calls are given as the source filed them. The calls are words filed in the database; no cut-off is given here.",
  "data": [
    {"smiles": "C[C@@H]1O[C@@H](Oc2c(-c3ccc(O)cc3)oc3cc(O)cc(O)c3c2=O)[C@H](O)[C@H](O)[C@H]1O", "note": "[AFZELIN]", "values": [
      {"measurement": "Activity", "setting": "Rattus norvegicus [1]", "value": "Active"},
      {"measurement": "pH", "setting": "Rattus norvegicus [2]", "value": 6.29},
      {"measurement": "pH", "setting": "Rattus norvegicus [3]", "value": 5.82},
      {"measurement": "Activity", "setting": "Rattus norvegicus [4]", "value": 12.79, "unit": "mmol/L"},
      {"measurement": "Activity", "setting": "Rattus norvegicus [5]", "value": 14.41, "unit": "mmol/L"},
      {"measurement": "Activity", "setting": "Rattus norvegicus [6]", "value": 113.3, "unit": "mmol/L"},
      {"measurement": "Activity", "setting": "Rattus norvegicus [7]", "value": "5.22 to 6.33", "unit": "mg/dL"},
      {"measurement": "Activity", "setting": "Rattus norvegicus [8]", "value": 6.08, "unit": "mg/dL"},
      {"measurement": "pH", "setting": "Rattus norvegicus [9]", "value": 6.25},
      {"measurement": "pH", "setting": "Rattus norvegicus [10]", "value": 5.94},
      {"measurement": "pH", "setting": "Rattus norvegicus [11]", "value": 6.14},
      {"measurement": "Activity", "setting": "Rattus norvegicus [12]", "value": 15.97, "unit": "mS/cm"},
      {"measurement": "Activity", "setting": "Rattus norvegicus [13]", "value": 75.54, "unit": "mmol/L"},
      {"measurement": "Activity", "setting": "Rattus norvegicus [14]", "value": 33.28, "unit": "mmol/L"},
      {"measurement": "Activity", "setting": "Rattus norvegicus [15]", "value": 154.7, "unit": "mmol/L"},
      {"measurement": "Activity", "setting": "Rattus norvegicus [16]", "value": 161.1, "unit": "mmol/L"},
      {"measurement": "Activity", "setting": "Rattus norvegicus [17]", "value": 284.5, "unit": "mmol/L"},
      {"measurement": "Activity", "setting": "Rattus norvegicus [18]", "value": 336.1, "unit": "mmol/L"},
      {"measurement": "Activity", "setting": "Rattus norvegicus [19]", "value": 4.54, "unit": "mg/dL"},
      {"measurement": "Activity", "setting": "Rattus norvegicus [20]", "value": 4.82, "unit": "mg/dL"},
      {"measurement": "Activity", "setting": "Rattus norvegicus [21]", "value": "Active"},
      {"measurement": "Activity", "setting": "Rattus norvegicus [22]", "value": "Active"},
      {"measurement": "Activity", "setting": "[23]", "value": "Non-Toxic"},
      {"measurement": "Activity", "setting": "[24]", "value": "Non-Toxic"},
      {"measurement": "Activity", "setting": "[25]", "value": "Non-Toxic"},
      {"measurement": "Activity", "setting": "[26]", "value": "Non-Toxic"},
      {"measurement": "Activity", "setting": "[27]", "value": "Non-Toxic"},
      {"measurement": "Activity", "setting": "[28]", "value": "Non-Toxic"},
      {"measurement": "Activity", "setting": "[29]", "value": "Non-Toxic"},
      {"measurement": "Activity", "setting": "[30]", "value": "Non-Toxic"},
      {"measurement": "Activity", "setting": "Rattus norvegicus [31]", "value": "Active"},
      {"measurement": "Activity", "setting": "Rattus norvegicus [32]", "value": "Active"},
      {"measurement": "Activity", "setting": "Rattus norvegicus [33]", "value": "Active"},
      {"measurement": "Activity", "setting": "[34]", "value": 57.47, "unit": "%"},
      {"measurement": "Activity", "setting": "[35]", "value": 27.81, "unit": "%"},
      {"measurement": "Activity", "setting": "[36]", "value": 27.21, "unit": "%"}
    ]}
  ]
}
